Results: patent US20070202078A1, “Method Of Treating Viral Infections” (priority 2003, published 2007)

Columns and labels:
HCV = conditions: cited from earlier work

Compound | virologic response (hepatitis C; Example A: lower doses of ribavirin (less than 400 mg/day or less than 6 mg/kg/day), slow-release, with 3 million IU Intron A once weekly) | therapeutic response versus conventional or systemic doses (hepatitis C; Example B: higher doses of ribavirin (600 mg/day), slow-release, with 3 million IU Intron A once weekly) | side effects versus conventional or systemic doses (hepatitis C; human, in vivo) | effect on HCV viral load or hepatic histology (HCV; given as monotherapy, orally) | response rate (measured by major fall in HCV levels) (HCV; administered parenterally for up to 6 months)
NC(=O)c1ncn([C@@H]2O[C@H](CO)[C@@H](O)[C@H]2O)n1 [Ribavirin, ribavirin] | sustained virologic response | more complete or faster therapeutic response | lower side effects | no effect | 
interferon alfa 2b |  |  |  |  | ~25%
